Converted amounts (≈) assume the structure as drawn. “And” between values parts separate entries of the source, which are not always exact repeats. Identical values can stand only once. “Also recorded” adds a separate entry of the source. Like-named read-outs stand apart in the source and are kept apart here.
Key:
[1] = tested on: Plasmodium falciparum 3D7 strain; assay: antiplasmodial interaction assay, fixed-ratio combination isobologram method with artemisinin; type: cell-based; conditions: for Mean ƩFIC ± SD: combination with artemisinin, over the fixed-ratio combinations; for antiplasmodial interaction with artemisinin (in words): four fixed-ratio combinations, in vitro; for Drug B Mean FIC50 ± SE: n = 3
Description: Stock culture of malaria parasite P. falciparum 3D7 strain (chloroquine sensitive) was continuously maintained in vitro using a CO2 incubator under low-oxygen concentration (3%) and high carbon dioxide atmosphere (4%) along with nitrogen (93%), incubated at a temperature of 37°C. The parasites were maintained on O^+ human red blood cells suspended in a complete culture medium. Each litre of RPMI-1640 aqueous culture medium was prepared with 10.4 g of powdered RPMI-1640 (with glutamine but without sodium bicarbonate), 5.94 g of HEPES buffer, 1 g of dextrose and 40 mg of gentamicin. Complete medium was constituted just before use by adding sterile 5% sodium bicarbonate at the rate of 4 ml per 96 ml, and supplemented with 10% (v/v) pooled O^+ human serum. Infected erythrocytes were suspended in this culture media initiated at a haematocrit value of 5% and parasitemia was kept between 2 and 4% with sub-culturing done beyond 5%. Medium was changed once a day and percentage parasitemia was monitored using Giemsa stained slides.
Artemisinin (Sigma Aldrich, USA) was prepared in DMSO to get the stock solution of 1 mg/ml strength. Compounds 10, 12 and 18 were synthesized according to the procedure described by Dixit et al. and each compound was made to strength of 1 mg/ml stock solution in DMSO. The stock solutions were diluted on the day of experiment to get the desired concentrations for each compound. The highest amount of DMSO in diluted concentrations was 0.125%, and had no effect on parasite growth.
In each combination assay, two compounds (Compound A, artemisinin and Compound B, a fluoroquinolone derivative or norfloxacin) were combined in four fixed ratios (4:1, 3:2, 2:3, and 1:4).
Compound dilutions of each combination solution were made in sterile, flat-bottomed, 96-well tissue culture plates as described by Fivelman et al.. Six times two-fold serial dilution was done for each combination in triplicate. Each well contained a total volume of 200 μl of complete culture medium with or without compound and pre-synchronized infected red blood cells (1% parasitemia at 2.5% haematocrit). Control cultures (without compound) were maintained on the same plate in triplicate. Two 96-well plates (for six combinations) were used for each combination experiment. The plates were stacked in a CO2 incubator and incubated at 37°C for 48 hours.
After 48-hour incubation, thin blood smear slides were prepared, air dried, methanol fixed, and stained in Giemsa solution for 40 min. After staining, slides were removed from coupling jar, washed in running tap water and air dried. The Giemsa-stained slides were examined for counting the number of parasites in random adjacent microscopic fields, equivalent to about 4,000 erythrocytes at 1,000 × magnification. Per cent parasitemia was calculated. Reproducibility of counts was checked by two other readers to maintain the quality control.
For each combination assay, IC50 was calculated from two sets of concentration response graphs, each containing compound alone curve and four combination curves.
ƩFIC <1 represents synergism, ƩFIC > = 1 and <2 represents additive interaction, ƩFIC > = 2 and <4 represents slight antagonism while ƩFIC > = 4 represents marked antagonism.

host cell = tested on: host cell; parameters: method as in PMID 22424611; conditions: read-out: in vitro host cell cytotoxicity IC50; cited from earlier work
[2] = tested on: 3D7 strain of P. falciparum; conditions: cited from earlier work
BALB/c mice = assay: LD50 test; type: in vivo; conditions: ip
Description: Therapeutic Index (TI) values were determined by the formula: TherapeuticIndexTI=MedianlethaldoseLD50/MedianeffectivedoseED50

Plasmodium berghei ANKA = assay: Peters' four-day suppressive test in BALB/c mice; type: in vivo; conditions: ip, once daily days 0 to 3, BALB/c mice; n = 5
Excerpt: Evaluation of the curative potential of the fluoroquinolone derivatives was done using the method described by Ryley and Peters, 1970 (rodent malaria four-day suppressive test; Peters’ four-day suppressive test). Rodent malaria parasite Plasmodium berghei ANKA was used.
[…] BALB/c inbred albino mice (25–30 g) of the male sex were obtained from the Animal Facility Centre of the Department of Zoology, University of Delhi. The animals were fed ad libitum with standard feed and had free access to water. They were maintained under standard conditions of humidity, temperature (25°C) and 12 hours light/darkness cycles. The animals were acclimatized for two weeks before the commencement of the study and were ensured to exclude all zoonotic agents.
Day 0: Heparinized blood was withdrawn from an infected donor mouse with approximately 25-30% parasitemia, and diluted in 1x PBS to 10^8 parasitized erythrocytes per mL. An aliquot of 0.2 mL (=2 × 10^7 parasitized erythrocytes) of this suspension was injected intraperitoneally (ip) into experimental groups of five mice each. One to three hours post-infection, the experimental groups were treated with varying doses of each of the test compounds (0.5, 1, 10, 25 mg/kg BW) by the ip route. Each compound was made to strength of 5 mg/ml stock solution in 10% DMSO and administered according to desired concentration and individual body weight. Artemisinin was given to the standard drug group and 0.2 mL of normal saline to the negative control group.
Day 1, 2 and 3: 24 hours, 48 hours and 72 hours post-infection, the experimental groups of mice were treated again with the same dose and by the same route as on day 0.
Day 4: 24 hours after the last treatment (i.e., 96 hours post-infection), blood was drawn from the tail region of mice and smears were prepared. […] Differences in parasitemia percentage between treated groups and untreated animals were analysed by a one-way ANOVA test using IBM SPSS Statistics 16.0 and differences considered significant if P < 0.05. […] Percentinhibitionactivity=100–Meanparasitemia/control×100
Untreated control mice typically died approximately one week after infection. […] The mean survival time was calculated in comparison to untreated (Normal saline) and standard drug (artemisinin) treated groups. Differences in survival time between treated groups and untreated animals were analysed by Log-rank (Mantel-Cox) test using GraphPad Prism 5 and differences considered significant if P <0.005. Observations concerning adverse effects due to the compounds were recorded.

[3] = artemisinin (A) : drug B ratio 1:4
[4] = artemisinin (A) : drug B ratio 2:3
[5] = artemisinin (A) : drug B ratio 3:2
[6] = artemisinin (A) : drug B ratio 4:1
[7] = ratio A:B 1:4, combined with artemisinin (drug A)
[8] = ratio A:B 2:3, combined with artemisinin (drug A)
[9] = ratio A:B 3:2, combined with artemisinin (drug A)
[10] = ratio A:B 4:1, combined with artemisinin (drug A)
[11] = P. falciparum 3D7, in vitro, read-out: IC50 (equivalent in μM)
[12] = fluoroquinolones in clinical use, reported values, read-out: reported IC50 against 3D7 strain of P. falciparum in vitro

| SMILES | interaction (class from Σ FICs) [1, 3] | Σ FICs [1, 3] | interaction (class from Σ FICs) [1, 4] | Σ FICs [1, 4] | interaction (class from Σ FICs) [1, 5] | Σ FICs [1, 5] | interaction (class from Σ FICs) [1, 6] | Σ FICs [1, 6] | antiplasmodial interaction with artemisinin (in words) [1] | Drug B Mean FIC50 ± SE ([1]; ratio A:B 0:5, drug B alone) | Drug B Mean FIC50 ± SE [1, 7] | Drug B Mean FIC50 ± SE [1, 8] | Drug B Mean FIC50 ± SE [1, 9] | Drug B Mean FIC50 ± SE [1, 10] | IC50 (host cell) [µM] | IC50 (inhibited the parasite multiplication rate to 50%) ± SE ([2]; P. falciparum 3D7, in vitro) [µg/mL] | IC50 [2, 11] [µM] | Therapeutic Index (TI) = LD50/ED50 (BALB/c mice) | Mean ED50 ± SE (Plasmodium berghei ANKA) | IC50 [2, 12] [µM] | other results |
| --- | --- | --- | --- | --- | --- | --- | --- | --- | --- | --- | --- | --- | --- | --- | --- | --- | --- | --- | --- | --- | --- |
| CCOC(=O)c1cn(CC#N)c2cc(Cl)c(F)cc2c1=O [Compound 10] | SYN (ƩFIC <1 represents synergism) | 0.58 | ADD (ƩFIC > = 1 and <2 represents additive interaction) | 1.01 | SYN (ƩFIC <1 represents synergism) | 0.80 | SYN (ƩFIC <1 represents synergism) | 0.76 | highly synergistic interactions; also recorded: synergistic antiplasmodial interaction in three of the four fixed-ratio combinations evaluated and additive in the remaining one | 0.93 ± 0.04 | 0.41 ± 0.03 | 0.53 ± 0.03 | 0.22 ± 0.02 | 0.15 ± 0.02 | 143 | 2.56 ± 0.30 (≈ 8.29 µM) | 8.69 | 346.32 | 2.31 mg/kg BW and 2.31 ± 0.19 mg/kg BW | – | Mean ƩFIC ± SD [1]: 0.788 ± 0.177 |
| CCOC(=O)c1cn(Cc2c[nH]nn2)c2cc(Cl)c(F)cc2c1=O [Compound 12] | SYN (ƩFIC <1 represents synergism) | 0.56 | ADD (ƩFIC > = 1 and <2 represents additive interaction) | 1.27 | SYN (ƩFIC <1 represents synergism) | 0.83 | SYN (ƩFIC <1 represents synergism) | 0.78 | highly synergistic interactions | 1.11 ± 0.08 | 0.32 ± 0.01 | 0.77 ± 0.03 | 0.23 ± 0.02 | 0.15 ± 0.003 | 171 | 1.33 ± 0.67 (≈ 3.79 µM) | 3.79 | 258.90 | 3.09 mg/kg BW and 3.09 ± 0.22 mg/kg BW | – | antiplasmodial interaction with artemisinin (in words) ([1]; listed as compound 12): synergistic interaction in three combinations and additive in one |
| CCOC(=O)c1cn(Cc2cccc(Cl)c2)c2cc(Cl)c(F)cc2c1=O [Compound 18] | SYN (ƩFIC <1 represents synergism) | 0.55 | ADD (ƩFIC > = 1 and <2 represents additive interaction) | 1.15 | ADD (ƩFIC > = 1 and <2 represents additive interaction) | 1.02 | SYN (ƩFIC <1 represents synergism) | 0.73 | synergistic in two combinations, while additive in the other two | 0.97 ± 0.08 | 0.33 ± 0.02 | 0.66 ± 0.03 | 0.47 ± 0.03 | 0.16 ± 0.01 | 129 | 2.73 ± 0.23 (≈ 6.92 µM) | 6.93 | 307.69 | 2.60 mg/kg BW and 2.60 ± 0.18 mg/kg BW | – | – |
| CCn1cc(C(=O)O)c(=O)c2cc(F)c(N3CCNCC3)cc21 [Norfloxacin, norfloxacin, reference compound] | SYN (ƩFIC <1 represents synergism) | 0.74 | ADD (ƩFIC > = 1 and <2 represents additive interaction) | 1.53 | SYN (ƩFIC <1 represents synergism) | 0.81 | ADD (ƩFIC > = 1 and <2 represents additive interaction) | 1.36 | synergistic interaction in two combinations, while additive in the remaining two | 0.98 ± 0.04 | 0.60 ± 0.02 | 0.87 ± 0.03 | 0.52 ± 0.04 | 0.45 ± 0.02 | – | – | – | – | – | 53.9 | Mean ƩFIC ± SD [1]: 1.11 ± 0.394 |
| NC1CCN(c2c(F)cc3c(=O)c(C(=O)O)cn(C4CC4)c3c2Cl)C1 (stereo not drawn) [clinafloxacin, reference compound] | – | – | – | – | – | – | – | – | – | – | – | – | – | – | – | – | – | – | – | 37.5 | – |
| CCn1cc(C(=O)O)c(=O)c2cc(F)c(N3CCNCC3)nc21 [enoxacin, reference compound] | – | – | – | – | – | – | – | – | – | – | – | – | – | – | – | – | – | – | – | 121 | – |
| CC1COc2c(N3CCN(C)CC3)c(F)cc3c(=O)c(C(=O)O)cn1c23 (stereo not drawn) [ofloxacin, reference compound] | – | – | – | – | – | – | – | – | – | – | – | – | – | – | – | – | – | – | – | 152 | – |

Reference: PMC4349624, “In vitro synergistic effect of fluoroquinolone analogues in combination with artemisinin against Plasmodium falciparum; their antiplasmodial action in rodent malaria model” (Malaria Journal, 2015)
